Source: US20210308137A1, “ANTIVIRAL COMPOUNDS AND METHOD FOR TREATING HEPATOTROPIC VIRAL INFECTION, PARTICULARLY HEPATITIS B AND HEPATITIS D” (priority 2020, published 2021)
pIC50: −log10 of the molar value.

Experiments:
[1] = system: HBV; assay: In vitro antiviral IC50 compared with Lamifudine in the same human liver cell line; assay type: cell-based; settings: human liver cell line as the host
Description: The potency difference is significant.

[2] = Cell viability MTT assay in Vero E6 cells; assay type: cell-based; settings: African green monkey
Protocol: (§1) HepG2.2.15 and HuS-E/2 cells were seeded at 1×10^4 cells/well in a 96-well plate for 20 h, then the cells were treated with the tested compounds at various concentration (0-500 μM) for 48 h. After the treatment, cell viability was examined using MTT [3-(4,5-dimethylthiazol-2-yl)-2,5-diphenyl tetrazolium bromide] assay (Sigma Chemical Co.). Briefly, a final concentration of 0.5 mg/ml MTT was added to each well and the samples were incubated for 1 h at 37° C., and then the supernatant was aspirated. The MTT-formazan crystals formed by metabolically viable cells were dissolved in 70 μl of DMSO, and the absorbance at 550 nm was measured on a microplate reader.
(§2) The compounds used were SH-001, SH-002, and SH-003. Before testing their potential antiviral effect on HBV and HDV infection, we first examined their toxicity on VeroE6 cells, HepG2.2.15 cells and HuS-E/2 immortalized human primary hepatocytes cells at concentration from 0 to 320 μM as indicated.

[3] = Cell viability MTT assay in HuS-E/2 cells; assay type: cell-based; settings: human
Protocol: as §1, §2

[4] = system: HBV; assay: Inhibition of HBV replication in HepG2.2.15 cells (HBsAg and HBeAg by ELISA, HBV DNA by real-time PCR); assay type: cell-based, Hepatitis B virus (ayw subtype); settings: 48 h; for HBeAg levels reduced to (percentage of non-drug-treated control) / HBsAg levels reduced to (percentage of non-drug-treated control) / amount of HBV DNA in culture medium: 10 μM; for HBeAg levels reduced to (percentage of non-drug-treated control) / HBsAg levels reduced to (percentage of non-drug-treated control): culture medium; for HBeAg levels reduced to (percentage of non-drug-treated control) / HBsAg levels reduced to (percentage of non-drug-treated control) / levels of HBeAg in the culture supernatant (in words) / levels of HBsAg in the culture supernatant (in words) / pIC50: ELISA; for amount of HBV DNA in culture medium: untreated cells 3.43*10^5 copies/ml; for levels of HBeAg in the culture supernatant (in words) / levels of HBsAg in the culture supernatant (in words) / HBV DNA (in words) / pIC50: HepG2.2.15 cells; for HBV DNA (in words): Q-PCR, dose-dependent; for pIC50: Hepatitis B virus, estimated
Description: Plasmid p1.3HBcl, which contains a 1.3-fold HBV genome (ayw subtype), was used as standard in parallel PCR reactions. The results are expressed as a percentage of the non-drug-treated positive control (NT) and are shown as mean±SD for three independent experiments.
Continuous HBV proliferation can be achieved in HepG2.2.15 cells (RRID:CVCL_L855) stably transfected with the HBV genome of the ayw subtype. HepG2.2.15 cells were maintained in Dulbecco's modified Eagle medium (DMEM; Invitrogen) supplemented with 10% heat-inactivated fetal bovine serum (FBS; Thermo) plus 100 units of penicillin and 100 μg of streptomycin per ml (both from Invitrogen).
The viruses were then collected from the supernatant. Q-PCR was used to detect HBV DNA as an index of efficiency of HBV replication. Next, the HBV HBsAg and HBeAg were examined by ELISA assay.
The culture medium from compound-treated HepG2.2.15 cells was clarified by centrifugation at 1,000×g at 4° C. for 10 min, and then the supernatant was layered on top of a 20% sucrose cushion (20% sucrose, 20 mM HEPES, pH 7.4, 0.1% bovine serum albumin [BSA]) and centrifuged at 197,000×g for 3 h at 4° C. to pellet the HBV particles. The particles were then concentrated 100 fold to detect HBV DNA.
Q-PCR was performed to detect HBV DNA as an efficiency index of HBV replication. Moreover, the HBV HBsAg and HBeAg were examined by ELISA assay.

[5] = system: HDV; assay: Inhibition of HDV infection/replication in HuS-E/2 cells (HDV RNA by real-time PCR); settings: for HDV RNA levels reduced to (percentage of non-drug-treated control): HuS-E/2 cells, 18 h infection + 48 h; for pIC50: Hepatitis delta virus, HuS-E/2, read-out: IC50 (HDV RNA); for HDV replication (in words): HuS-E/2 human hepatocytes
Protocol: HDV genome was measured by RT-PCR and expressed as the percentage of the value for the non-drug-treated controls (NT). Control PCRs were performed for endogenous GAPDH mRNA as the loading control. […] The results are the mean±SD for three independent experiments.
HuS-E/2 cells that retain primary hepatocyte characteristics after prolonged culture were utilized for HDV infection. For HDV infection, HuS-E/2 cells were differentiated with 1% DMSO for 5-7 days, and HDV virus particles were added to infect and replicate in HuS-E/2 cells (MOI=10) as described by Huang et al. (J Virol. 2012 September; 86(17):9443-53. Epub 2012 Jun. 27) The HuS-E/2 cells are useful to assay infectivity of HDV, and screening of anti-HDV agents.
The compounds were added to the medium at the indicated concentration during infection with HDV for 18 h, then the infected cells were incubated in medium containing the compounds for further 48 h. Real-time PCR was performed to detect HDV RNA as an efficiency index of HDV infection.
Total DNA was extracted with a Genomic DNA isolation kit (Nexttec Biotechnologie, Germany). Total RNA was isolated from cultured cells using TRIzol® reagent (Invitrogen). Reverse transcription was performed with the RNA templates, AMV reverse transcriptase (Roche), and oligo-dT primer. The products were subjected to real-time PCR with primer sets of specific genes and SYBR Green PCR Master Mix (Bio-Rad). The primer sets used for HBV DNA and HDV RNA were as described by Huang et al. (J Virol. 2012 September; 86(17):9443-53. Epub 2012 Jun. 27) The results were analyzed with the iCycler iQ real-time PCR detection system (Bio-Rad).
The infected cells were then washed and incubated in medium containing the tested compounds for further 48 h, and real-time PCR was used to detect HDV mRNA as an efficiency index of HDV infection.

[6] = Cell viability MTT assay in HepG2.2.15 cells; assay type: cell-based; settings: human, 0-320 μM
Protocol: as §1, §2

Compound | pIC50 ([1]; Hepatitis B virus) | HBeAg levels reduced to (percentage of non-drug-treated control) [4] [%] | HBsAg levels reduced to (percentage of non-drug-treated control) [4] [%] | amount of HBV DNA in culture medium [4] | levels of HBeAg in the culture supernatant (in words) [4] | levels of HBsAg in the culture supernatant (in words) [4] | HBV DNA (in words) [4] | pIC50 ([4]; read-out: IC50 (HBeAg)) | pIC50 ([4]; read-out: IC50 (HBsAg)) | pIC50 [5] | HDV replication (in words) [5] | CC50 at 48 h [6] [µM] | CC50 at 48 h [2] [µM] | also measured
Nc1ccn([C@@H]2CS[C@H](CO)O2)c(=O)n1 [Lamifudine, reference compound] | – | – | – | – | – | – | – | – | – | – | – | – | – | pIC50 [1]: 6.45
O=C(O)c1ccc2c(c1)nc(Nc1cccc(Cl)c1)c1ccncc12 [SH-001, Silmitasertib] | ≤ 8.30 | 53.66±3.02 | 39.85±1.78 | 5.51*10^4 copies/ml | significantly decreased | significantly decreased | repressed | 4.92 | 5.18 | ~6.84 | significantly inhibited | > 195 | – | CC50 at 48 h ([2]; VeroE6 cells, 48 h, MTT, 0-320 μM, read-out: CC50): > 205 µM; CC50 at 48 h ([3]; HuS-E/2 cells, 48 h, MTT, 0-320 μM, read-out: CC50): > 195 µM; HDV RNA levels reduced to (percentage of non-drug-treated control) ([5]; 2.5 μM): 28.8±22.8%; HDV RNA levels reduced to (percentage of non-drug-treated control) ([5]; 5 μM): 8.7±1.3%
O=C1NC(=O)/C(=C/c2cnn3c(NC4CC4)cc(Nc4cc(Cl)ccc4F)nc23)N1 [SH-002] | ≤ 8.30 | 61.18±6.43 | 52.01±3.05 | 3.13*10^4 copies/ml | significantly decreased | significantly decreased | repressed | 3.78 | 4.93 | ~7.16 | significantly inhibited | > 164 | > 61.3 | CC50 at 48 h [3]: > 164 µM; HDV RNA levels reduced to (percentage of non-drug-treated control) ([5]; 0.1 μM): 53.1±16.8%; HDV RNA levels reduced to (percentage of non-drug-treated control) ([5]; 0.2 μM): 40.8±18.6%
CC(N)C(=O)OCN1C(=O)N/C(=C\c2cnn3c(NC4CC4)cc(Nc4cc(Cl)ccc4F)nc23)C1=O (stereo not shown) [SH-003] | – | – | – | – | – | – | – | – | – | – | – | – | > 205 | –
